Measured values taken from US10519177B2, “Heterocyclic compounds and uses thereof” (Plexxikon Inc., priority 2013, dated 2019).
Where two headings read alike, the source gives them in different places.

Experiments:
[1] = tested on: bromodomain; experiment: at least one of the bromodomain cell assays of Example 57; assay type: cell-based; details: at least one of the bromodomain cell assays described in Example 57; read-out: IC50 in at least one of the bromodomain cell assays
[2] = target: BRD4-BD12 (1-477) (Homo sapiens (Human), UniProt O60885); experiment: Alphascreen binding assay BRD4-BD12; details: BRD4(1 2) H4; read-out: Biochemical activity (IC50 μM) BRD4(1 2) H4
In short: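 First, compound was preincubated 1 h at room temperature with the His-tagged BRD4 protein (BD1 44-164 or tandem BD12 1-477) and acetylated H4 peptide. Next, donor and acceptor beads were added at 7.5 μg/ml final. After 30 min, AlphaScreen emission was recorded.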

[3] = tested on: MV-4-11 cells; experiment: Oncology cell growth assay MV-4-11 (CellTiter Glo); assay type: cell-based; details: Homo sapiens, MV4-11, 72 h, read-out: Cell activity (IC50 μM) MV-4-11 3d-Growth
In short: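 MV-4-11 AML cells (MLL-AF4), 3000 per well, exposed to 8-point 1:3 compound titration from 10 μM top concentration (0.2% DMSO) for 72 h. Viability by CellTiter Glo luminescence, normalized to DMSO controls; pIC50 from four-parameter curve fit.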

**Q.** `[2H]C([2H])(C1CCC(F)(F)CC1)n1cc(-c2cn(C)nc2C(F)(F)F)c2ncc(-c3c(C)noc3C)cc21` [P-0337, 4-[1-[dideuterio-(4,4-difluorocyclohexyl)methyl]-3-[1-methyl-3-(trifluoromethyl)pyrazol-4-yl]pyrrolo[3,2-b]pyridin-6-yl]-3,5-dimethyl-isoxazole] was tested. Which IC50 [1] did it give?
**A.** The IC50 was < 10 µM.

**Q.** What about the IC50 [2] of the same molecule?
**A.** Its IC50 is < 1 µM.

**Q.** What about the IC50 [3] of the same molecule?
**A.** Its IC50 is < 1 µM.

**Q.** Which IC50 [1] does the source give for `Cc1noc(C)c1-c1cnc2c(-c3cnn(CC(F)(F)F)c3)cn(CC3CCC(F)(F)CC3)c2c1` [P-0253, 4-[1[(4,4-difluorocyclohexyl)methyl]-3-[1-(2,2,2-trifluoroethyl)pyrazol-4-yl]pyrrolo[3,2-b]pyridin-6-yl]-3,5-dimethyl-isoxazole] here?
**A.** The IC50 was < 10 µM.

**Q.** What about the IC50 [2] of the same molecule?
**A.** Its IC50 is < 1 µM.

**Q.** What about the IC50 [3] of the same molecule?
**A.** Its IC50 is < 1 µM.

**Q.** How did the IC50 [1] turn out when `Cc1noc(C)c1-c1cnc2c(-c3ccc(CO)cc3)cn(CC3CCC(F)(F)CC3)c2c1` [P-0601, [4-[1-[(4,4-difluorocyclohexyl)methyl]-6-(3,5-dimethylisoxazol-4-yl)pyrrolo[3,2-b]pyridin-3-yl]phenyl]methanol] was run?
**A.** The IC50 was < 10 µM.

**Q.** And the IC50 [2]?
**A.** Its IC50 is < 1 µM.

**Q.** And the IC50 ([3]; MV-4-11, 3d growth)?
**A.** The IC50 was < 1 µM.

**Q.** How did the IC50 [1] turn out when `COC(=O)c1ccc(-n2cc(CC3CCC(F)(F)CC3)c3cc(-c4c(C)noc4C)cnc32)cc1` [P-0544, methyl 4-[3-[(4,4-difluorocyclohexyl)methyl]-5-(3,5-dimethylisoxazol-4-yl)pyrrolo[2,3-b]pyridin-1-yl]benzoate] was run?
**A.** The IC50 was < 10 µM.

**Q.** And the IC50 [2]?
**A.** Its IC50 is < 1 µM.

**Q.** And the IC50 ([3]; MV-4-11, 3d growth)?
**A.** Its IC50 is 1 to 10 µM.

**Q.** Which results are given for `Cc1noc(C)c1-c1cnc2c(-c3cnn(CC(=O)O)c3)cn(CC3CCC(F)(F)CC3)c2c1` [P-0482, 3-[4-[1-[(4,4-difluorocyclohexyl)methyl]-6-(3,5-dimethylisoxazol-4-yl)pyrrolo[3,2-b]pyridin-3-yl]pyrazol-1-yl]acetic acid]?
**A.** IC50 [1]: < 10 µM; IC50 [2]: < 1 µM; IC50 ([3]; MV-4-11, 3d growth): 10 to 200 µM

**Q.** Which results are given for `COC(=O)c1ccc(-c2cn(CC3CCC(F)(F)CC3)c3cc(-c4c(C)noc4C)cnc23)cn1` [P-0418, methyl 5-[1-[(4,4-difluorocyclohexyl)methyl]-6-(3,5-dimethylisoxazol-4-yl)pyrrolo[3,2-b]pyridin-3-yl]pyridine-2-carboxylate]?
**A.** IC50 [1]: < 10 µM; IC50 [2]: < 1 µM; IC50 [3]: < 1 µM

**Q.** How did the IC50 [1] turn out when `Cc1noc(C)c1-c1cnc2c(-c3ccc(C(=O)O)cc3F)cn(CC3(F)CCCCC3)c2c1` [P-0468, 4-[6-(3,5-dimethylisoxazol-4-yl)-1-[(1-fluorocyclohexyl)methyl]pyrrolo[3,2-b]pyridin-3-yl]-3-fluoro-benzoic acid] was run?
**A.** The IC50 was < 10 µM.

**Q.** And the IC50 [2]?
**A.** The IC50 was < 1 µM.

**Q.** And the IC50 ([3]; MV-4-11, 3d growth)?
**A.** The IC50 was < 1 µM.

**Q.** Which IC50 [1] does the source give for `Cn1cc(-c2cnc3c(-c4cnn(CC(F)(F)F)c4)cn(CC4CCC(F)(F)CC4)c3c2)ccc1=O` [P-0436, 5-[1-[(4,4-difluorocyclohexyl)methyl]-3-[1-(2,2,2-trifluoroethyl)pyrazol-4-yl]pyrrolo[3,2-b]pyridin-6-yl]-1-methyl-pyridin-2-one] here?
**A.** The IC50 was < 10 µM.

**Q.** What about the IC50 [2] of the same molecule?
**A.** Its IC50 is < 1 µM.

**Q.** What about the IC50 ([3]; MV-4-11, 3d growth) of the same molecule?
**A.** Its IC50 is < 1 µM.

**Q.** `Cc1nnn(C)c1-c1cnc2c(-c3ccc(C(=O)O)cc3)cn(CC3(F)CCC(F)(F)CC3)c2c1` [P-0373, 4-[6-(3,5-dimethyltriazol-4-yl)-1-[(1,4,4-trifluorocyclohexyl)methyl]pyrrolo[3,2-b]pyridin-3-yl]benzoic acid] was tested. Which IC50 [1] did it give?
**A.** The IC50 was < 10 µM.

**Q.** And the IC50 [2]?
**A.** Its IC50 is < 1 µM.

**Q.** And the IC50 [3]?
**A.** The IC50 was < 1 µM.

**Q.** For `Cc1ccc(-c2cn(CC3CCC(F)(F)CC3)c3cc(-c4c(C)noc4C)cnc23)cc1C(=O)O` [P-0415, 5-[1-[(4,4-difluorocyclohexyl)methyl]-6-(3,5-dimethylisoxazol-4-yl)pyrrolo[3,2-b]pyridin-3-yl]-2-methyl-benzoic acid], which IC50 [1] is on record?
**A.** The IC50 was < 10 µM.

**Q.** And the IC50 [2]?
**A.** Its IC50 is < 1 µM.

**Q.** What about the IC50 [3] of the same molecule?
**A.** The IC50 was < 1 µM.

**Q.** For `Cc1noc(C)c1-c1cnc2c(-c3cnn(C)c3)cn([C@@H](C)c3ccccn3)c2c1` [P-0516, 3,5-dimethyl-4-[3-(1-methylpyrazol-4-yl)-1-[(1S)-1-(2-pyridyl)ethyl]pyrrolo[3,2-b]pyridin-6-yl]isoxazole], which IC50 [1] is on record?
**A.** The IC50 was < 10 µM.

**Q.** And the IC50 [2]?
**A.** Its IC50 is < 1 µM.

**Q.** And the IC50 ([3]; MV-4-11, 3d growth)?
**A.** The IC50 was < 1 µM.

**Q.** For `Cc1noc(C)c1-c1cnc2c(-c3ccc(C(=O)O)s3)cn(CC3(F)CCCCC3)c2c1` [P-0478, 5-[6-(3,5-dimethylisoxazol-4-yl)-1-[(1-fluorocyclohexyl)methyl]pyrrolo[3,2-b]pyridin-3-yl]thiophene-2-carboxylic acid], which IC50 [1] is on record?
**A.** Its IC50 is < 10 µM.

**Q.** And the IC50 [2]?
**A.** Its IC50 is < 1 µM.

**Q.** And the IC50 ([3]; MV-4-11, 3d growth)?
**A.** Its IC50 is < 1 µM.

**Q.** How did the IC50 [1] turn out when `Cc1noc(C)c1-c1cnc2c(-c3ccc(-c4nnn[nH]4)cc3)cn(CC3(F)CCCCC3)c2c1` [P-0460, 4-[1-[(1-fluorocyclohexyl)methyl]-3-[4-(1H-tetrazol-5-yl)phenyl]pyrrolo[3,2-b]pyridin-6-yl]-3,5-dimethyl-isoxazole] was run?
**A.** The IC50 was < 10 µM.

**Q.** What about the IC50 [2] of the same molecule?
**A.** The IC50 was < 1 µM.

**Q.** What about the IC50 ([3]; MV-4-11, 3d growth) of the same molecule?
**A.** Its IC50 is < 1 µM.

**Q.** With `Cc1noc(C)c1-c1cnc2c(-c3cnn(CCF)c3)cn(CC3(F)CCCCC3)c2c1` [P-0260, 4-[1-[(1-fluorocyclohexyl)methyl]-3-[1-(2-fluoroethyl)pyrazol-4-yl]pyrrolo[3,2-b]pyridin-6-yl]-3,5-dimethyl-isoxazole] as the molecule, how does the IC50 [1] read?
**A.** The IC50 was < 10 µM.

**Q.** What about the IC50 [2] of the same molecule?
**A.** The IC50 was < 1 µM.

**Q.** What about the IC50 [3] of the same molecule?
**A.** The IC50 was < 1 µM.

**Q.** With `Cc1onc(N)c1-c1cnc2c(-c3cnn(CC(F)(F)F)c3)cn(CC3CCC(F)(F)CC3)c2c1` [P-0368, 4-[1-[(4,4-difluorocyclohexyl)methyl]-3-[1-(2,2,2-trifluoroethyl)pyrazol-4-yl]pyrrolo[3,2-b]pyridin-6-yl]-5-methyl-isoxazol-3-amine] as the molecule, how does the IC50 [1] read?
**A.** The IC50 was < 10 µM.

**Q.** And the IC50 [2]?
**A.** Its IC50 is < 1 µM.

**Q.** And the IC50 [3]?
**A.** The IC50 was < 1 µM.

**Q.** Which results are given for `COc1ncc(-c2cnc3c(-c4cnn(CC(F)(F)F)c4)cn(CC4CCC(F)(F)CC4)c3c2)s1` [P-0452, 5-[1-[(4,4-difluorocyclohexyl)methyl]-3-[1-(2,2,2-trifluoroethyl)pyrazol-4-yl]pyrrolo[3,2-b]pyridin-6-yl]-2-methoxy-thiazole]?
**A.** IC50 [1]: < 10 µM; IC50 [2]: < 1 µM; IC50 ([3]; MV-4-11, 3d growth): 1 to 10 µM

**Q.** How did the IC50 [1] turn out when `Cn1cc(-c2cn(CC3CCC(F)(F)CC3)c3cc(-c4ccc(=O)n(C)c4)cnc23)cn1` [P-0438, 5-[1-[(4,4-difluorocyclohexyl)methyl]-3-(1-methylpyrazol-4-yl)pyrrolo[3,2-b]pyridin-6-yl]-1-methyl-pyridin-2-one] was run?
**A.** The IC50 was < 10 µM.

**Q.** And the IC50 [2]?
**A.** The IC50 was < 1 µM.

**Q.** What about the IC50 ([3]; MV-4-11, 3d growth) of the same molecule?
**A.** Its IC50 is < 1 µM.

**Q.** `Cc1noc(C)c1-c1cnc2c(-c3cnc(C4CC4)nc3)cn(CC3(F)CCCCC3)c2c1` [P-0474, 4-[3-(2-cyclopropylpyrimidin-5-yl)-1-[(1-fluorocyclohexyl)methyl]pyrrolo[3,2-b]pyridin-6-yl]-3,5-dimethyl-isoxazole] was tested. Which IC50 [1] did it give?
**A.** The IC50 was < 10 µM.

**Q.** What about the IC50 [2] of the same molecule?
**A.** The IC50 was < 1 µM.

**Q.** And the IC50 ([3]; MV-4-11, 3d growth)?
**A.** Its IC50 is < 1 µM.

**Q.** Which IC50 [1] does the source give for `Cc1noc(C)c1-c1cnc2c(-c3cccc(C(=O)O)c3)cn(CC3CCC(F)(F)CC3)c2c1` [P-0393, 3-[1-[(4,4-difluorocyclohexyl)methyl]-6-(3,5-dimethylisoxazol-4-yl)pyrrolo[3,2-b]pyridin-3-yl]benzoic acid] here?
**A.** The IC50 was < 10 µM.

**Q.** What about the IC50 [2] of the same molecule?
**A.** Its IC50 is < 1 µM.

**Q.** And the IC50 [3]?
**A.** The IC50 was < 1 µM.

**Q.** With `[2H]C([2H])(C1CCC(F)(F)CC1)n1cc(-c2cnc(C3CC3)nc2)c2ncc(-c3c(C)noc3C)cc21` [P-0349, 4-[3-(2-cyclopropylpyrimidin-5-yl)-1-[dideuterio-(4,4-difluorocyclohexyl)methyl)pyrrolo[3,2-b]pyridin-6-yl]-3,5-dimethyl-isoxazole] as the molecule, how does the IC50 [1] read?
**A.** The IC50 was < 10 µM.

**Q.** What about the IC50 [2] of the same molecule?
**A.** Its IC50 is < 1 µM.

**Q.** And the IC50 [3]?
**A.** Its IC50 is < 1 µM.
